Measured values as given in patent US20120238488A1, “COMPOUNDS AND METHODS FOR TREATING NEOPLASIA” (priority 2009, published 2012).

Tests used:
[1] = test system: Na+/K+-ATPase (Adenosine 5′-Triphosphatase isolated from porcine cerebral cortex); test: Na+/K+-ATPase inhibitory activity, colorimetric Adenosine 5'-Triphosphatase Enzymatic Assay; assay type: biochemical
Method: The inhibitory effect of a compound of the invention on ATPase activity was assessed in vitro using the colorimetric Adenosine 5′-Triphosphatase Enzymatic Assay of Sigma (St. Louis, Mo.) according to the manufacturer's instructions. This assay utilizes Adenosine 5′-Triphosphatase isolated from porcine cerebral cortex. Each reaction was performed in a final volume of 250 μl using 0.5 units/ml enzyme in the presence of different inhibitors. […] IC50 values were determined using the Origin® program software (OriginLab, Northampton, Mass.).

A549 (Lung) = test: SRB assay, A549; assay type: cell-based, human
Method: (§1) SRB assays were performed according to standard National Cancer Institute Guidelines. Briefly, human tumor cells from different cancer panels were seeded into 96 well plates in 100 μL (plating densities ranging from 5-40,000 cells/well depending on the doubling time of individual cell lines) in serum-containing media for twenty-four hours prior to the addition of the compounds to be assayed. After 24 hours, one plate of each cell line was fixed in situ with trichloroacetic acid (TCA). The fixed slides were used to determine the cell population for each cell line at the time of drug addition (Tz). Each compound to be tested was solubilized in DMSO and the desired concentration was then added to the medium and diluted serially 1:10 to provide a total of five or ten drug concentrations plus control (in a final volume of 200 μL). The starting dose before any dilution was 100 uM for all compounds.
(§2) Following drug addition, each culture was incubated for forty-eight hours. The assay was terminated with the addition of cold TCA. The supernatant was discarded, and the plates were washed with tap water and air dried. Sulforhodamine B (SRB) solution was then added to each well. After staining, the bound stain was solubilized and the absorbance was read on an automated plate reader at a wavelength of 515 nm.
(§3) Using the absorbance measurements [time zero, (Tz), control growth, (C), and test growth in the presence of drug at the ten concentration levels (Ti)], the percentage growth was calculated at each of the drug concentrations levels. Percentage growth inhibition was calculated as:
(§4) [(Ti−Tz)/(C−Tz)]×100 for concentrations for which Ti>/=Tz
(§5) [(Ti−Tz)/Tz]×100 for concentrations for which Ti<Tz.
(§6) Three dose response parameters were calculated for each experimental agent. Growth inhibition of 50% (GI50) was calculated from [(Ti−Tz)/(C−Tz)]×100=50, which was the drug concentration resulting in a 50% reduction in the net protein increase (as measured by SRB staining) in control cells during the drug. The drug concentration resulting in total growth inhibition (TGI) was calculated from Ti=Tz. The LC50 (concentration of drug resulting in a 50% reduction in the measured protein at the end of the drug treatment as compared to that at the beginning) indicating a net loss of cells following treatment was calculated from [(Ti−Tz)/Tz]×100=−50.
(§7) Values were calculated for each of these three parameters when the level of activity was reached; however, if the effect was not reached or was exceeded, the value for that parameter was expressed as greater or less than the maximum or minimum concentration tested.
(§8) Table 4 summarizes results characterizing the effects of compound Nos. 120, 12, 61, 1, and 56 on GI50, which measures the cell growth inhibitory power of the compound, TGI, which measures cytostatic effect (TGI) and LC50, which signifies cytotoxic effect. Each of these parameters in Table 4 was calculated in a sulforhodamine B (SRB) assay, which provides a colorimetric measure of a compound's anti-cancer activity. SRB assays were performed with compounds of the invention in 22 different cell lines (shaded in light gray in Table 4), which represent nine different tumor panels (lung, melanoma, ovary, prostate, CNS, breast, pancreas colon and renal). Ouabain and digoxin were used as controls. Paclitaxel was added as a non-Na^+K^+-ATPase inhibitor control.

ERVK (Lung) = test: SRB assay, ERVK; assay type: cell-based, human; conditions: 48 h
Method: as §1, §2, §3, §4, §5, §6, §7, §8

SKMEL28 (Melanoma) = test: SRB assay, SKMEL28; assay type: cell-based, human
Method: as §1, §2, §3, §4, §5, §6, §7, §8

MB435 (Melanoma) = test: SRB assay, MB435; assay type: cell-based, human; conditions: 48 h
Method: as §1, §2, §3, §4, §5, §6, §7, §8

OVCAR5 (Ovary) = test: SRB assay, OVCAR5; assay type: cell-based, human
Method: as §1, §2, §3, §4, §5, §6, §7, §8

OVCAR3 (Ovary) = test: SRB assay, OVCAR3; assay type: cell-based, human
Method: as §1, §2, §3, §4, §5, §6, §7, §8

ADRRES (Ovary) = test: SRB assay, ADRRES (multidrug resistant NCI-ADR-RES); assay type: cell-based, human
Method: NCI-ADR-RES cells have been classified as ovarian cancer cells by the National Cancer Institute.
as §1, §2, §3, §4, §5, §6, §7, §8
Table 4 also presents results with Compound Nos. 120, 12, 61, 1, and 56 in a well characterized drug resistant cell line, NCI-ADR-RES, that expresses high levels of MDR1 and P-glycoprotein.

DU145 (Prostate) = test: SRB assay, DU145; assay type: cell-based, human
Method: as §1, §2, §3, §4, §5, §6, §7, §8

PCJ (Prostate) = test: SRB assay, PCJ; assay type: cell-based; conditions: Homo sapiens, 48 h
Method: as §1, §2, §3, §4, §5, §6, §7, §8

SF268 (CNS) = test: SRB assay, SF268; assay type: cell-based; conditions: Homo sapiens
Method: as §1, §2, §3, §4, §5, §6, §7, §8

HCT116 (Colon) = test: SRB assay, HCT116; assay type: cell-based; conditions: Homo sapiens
Method: as §1, §2, §3, §4, §5, §6, §7, §8

CAKJ1 (Renal) = test: SRB assay, CAKJ1; assay type: cell-based, human; conditions: 48 h
Method: as §1, §2, §3, §4, §5, §6, §7, §8

In the case of `C[C@]12CCC(=NOCCN)C=C1CCC1C2CC[C@]2(C)C(=O)CCC12` (stereo partly drawn) [Compound 12, (10R,13S)-3-(2-aminoethoxyimino)-10,13-dimethyl-2,3,7,8,9,10,11,12,13,14,15,16-dodecahydro-1H-cyclopenta[a]phenanthren-17(6H)-one], the “Na+K+ ATPase inhibitory activity (in words)” value [1] is reported as “strong Na+K+ ATPase inhibitory activities”, the IC50 ([1]; read-out: Na+K+ ATPase inhibitory activity IC50) is reported as 0.375 µM and the TGI (A549 (Lung); A549, SRB, 48 h) is reported as 6.90 µM. For the same compound, the CC50 (A549 (Lung); Homo sapiens, A549, 48 h, read-out: LC50) was 9.73 µM, the GI50 (A549 (Lung); Homo sapiens, A549, SRB, 48 h) was 4.08 µM and the TGI (ERVK (Lung); ERVK, SRB) was 5.13 µM. The CC50 (ERVK (Lung); Homo sapiens, read-out: LC50) was 8.8 µM, the GI50 (ERVK (Lung); Homo sapiens, ERVK, SRB) was 1.45 µM and the CC50 (SKMEL28 (Melanoma); Homo sapiens, SK-MEL-28, 48 h, read-out: LC50) was 85.6 µM. The GI50 (SKMEL28 (Melanoma); Homo sapiens, SK-MEL-28, SKMEL28, SRB, 48 h) was 8.39 µM, the TGI (SKMEL28 (Melanoma); SKMEL28, SRB, 48 h) was 40.16 µM and the CC50 (MB435 (Melanoma); Homo sapiens, read-out: LC50) was 75.8 µM. For the same compound, the GI50 (MB435 (Melanoma); Homo sapiens, MB435, SRB) was 5.45 µM, the TGI (MB435 (Melanoma); MB435, SRB) was 10.24 µM and the CC50 (OVCAR5 (Ovary); Homo sapiens, OVCAR-5, 48 h, read-out: LC50) was 63.6 µM. It also gave a GI50 (OVCAR5 (Ovary); Homo sapiens, OVCAR-5, OVCAR5, SRB, 48 h) of 5.3 µM, a TGI (OVCAR5 (Ovary); OVCAR5, SRB, 48 h) of 9.02 µM and a CC50 (OVCAR3 (Ovary); Homo sapiens, OVCAR-3, 48 h, read-out: LC50) of 88.8 µM. The GI50 (OVCAR3 (Ovary); Homo sapiens, OVCAR-3, OVCAR3, SRB, 48 h) was 3.01 µM, the TGI (OVCAR3 (Ovary); OVCAR3, SRB, 48 h) was 28.79 µM and the TGI (ADRRES (Ovary); ADRRES, SRB, 48 h) was 6.58 µM. The CC50 (ADRRES (Ovary); Homo sapiens, NCI/ADR-RES, 48 h, read-out: LC50) was 10.1 µM, the GI50 (ADRRES (Ovary); Homo sapiens, NCI/ADR-RES, ADRRES, SRB, 48 h) was 3.08 µM and the “GI50 in NCI-ADR-RES cells compared to non-resistant MCF-7 cells” value (ADRRES (Ovary); SRB) was “the same GI50 value”. For the same compound, the “anti-tumor action in multidrug resistant cell line NCI-ADR-RES” value (ADRRES (Ovary); SRB, cells express high levels of MDR1 and P-glycoprotein) was “potent anti-tumor action”, the TGI (DU145 (Prostate); DU145, SRB, 48 h) was 5.75 µM and the CC50 (DU145 (Prostate); Homo sapiens, DU-145, 48 h, read-out: LC50) was 8.45 µM. For the same compound, the GI50 (DU145 (Prostate); Homo sapiens, DU-145, DU145, SRB, 48 h) was 3.04 µM, the CC50 (PCJ (Prostate); read-out: LC50) was 8.52 µM and the GI50 (PCJ (Prostate); PCJ, SRB) was 3.54 µM. It also gave an IC (TGI) (PCJ (Prostate); PCJ, SRB) of 6.03 µM, a CC50 (SF268 (CNS); SF-268, 48 h, read-out: LC50) of 8.51 µM and a GI50 (SF268 (CNS); SF-268, SF268, SRB, 48 h, read-out: GI50) of 2.84 µM. The IC (TGI) (SF268 (CNS); SF-268, SF268, SRB, 48 h, read-out: TGI) was 5.67 µM, the CC50 (HCT116 (Colon); HCT-116, 48 h, read-out: LC50) was 10.7 µM and the GI50 (HCT116 (Colon); HCT-116, HCT116, SRB, 48 h) was 4.06 µM. It also gave an IC (TGI) (HCT116 (Colon); HCT-116, HCT116, SRB, 48 h) of 7.38 µM, a TGI (CAKJ1 (Renal); CAKJ1, SRB) of 6.56 µM and a CC50 (CAKJ1 (Renal); Homo sapiens, read-out: LC50) of 9.44 µM. For the same compound, the GI50 (CAKJ1 (Renal); Homo sapiens, CAKJ1, SRB) was 3.69 µM.
